Values of other authors as cited in patent US20250312353A1, “DRUG R[…] TREATMENT OF […] MALFORMATIONS” (University of South Carolina, priority 2024, published 2025).

What was measured:
[1] = system: human lung tumor associated endothelial cell; settings: on matrigel; even in the presence of VEGF
[2] = system: host macrophage; settings: bacterial infection

Compound: COc1nc2ccc(Br)cc2cc1[C@@H](c1ccccc1)[C@@](O)(CCN(C)C)c1cccc2ccccc12 [bedaquiline]
- effect on capillary network formation [1]: inhibit capillary network formation
- effect on host macrophage innate immune resistance [2]: activate host macrophage innate immune resistance to bacterial infection
